Measured values: ChEMBL document CHEMBL3734705, “Synthesis and in vitro cytotoxicity of novel C-12 substituted-14-deoxy-andrographolide derivatives as potent anti-cancer agents” (2015)
The source made the active and inactive calls. No cut-off for these calls is given here.

What was measured:
Assay type in all cases: functional
[1] = Cytotoxicity against human SNB75 cells after 48 hrs by SRB assay; conditions: SNB-75, 48 h
[2] = Cytotoxicity against human OVCAR8 cells after 48 hrs by SRB assay; conditions: OVCAR-8, 48 h
[3] = Cytotoxicity against human HCT116 cells after 48 hrs by SRB assay; conditions: HCT-116, 48 h
SN12C = assay: Cytotoxicity against human SN12C cells after 48 hrs by SRB assay
[4] = Cytotoxicity against human PC3 cells after 48 hrs by SRB assay; conditions: PC-3, 48 h
[5] = (§1) Cytotoxicity against human OVCAR5 cells assessed as growth inhibition at 10 uM after 48 hrs by SRB assay; conditions: OVCAR-5, 48 h, read-out: GI
[6] = Cytotoxicity against human MOLT4 cells after 48 hrs by SRB assay; conditions: MOLT-4, 48 h
[7] = Cytotoxicity against human UACC257 cells after 48 hrs by SRB assay; conditions: UACC-257, 48 h
SK-MEL-2 [8] = assay: Cytotoxicity against human SK-MEL-2 cells after 48 hrs by SRB assay; conditions: SK-MEL-2, 48 h
[9] = Cytotoxicity against human HOP92 cells after 48 hrs by SRB assay; conditions: HOP-92, 48 h
[10] = Cytotoxicity against human DU145 cells after 48 hrs by SRB assay; conditions: DU-145, 48 h
[11] = Cytotoxicity against human RXF393 cells after 48 hrs by SRB assay; conditions: RXF 393, 48 h
[12] = Cytotoxicity against human UO31 cells after 48 hrs by SRB assay; conditions: UO-31, 48 h
A498 = assay: Cytotoxicity against human A498 cells after 48 hrs by SRB assay; conditions: A498, 48 h
[13] = Cytotoxicity against human HL-60(TB) cells after 48 hrs by SRB assay; conditions: HL-60, 48 h
[14] = Cytotoxicity against human HOP62 cells after 48 hrs by SRB assay; conditions: HOP-62, 48 h
EKVX = assay: Cytotoxicity against human EKVX cells after 48 hrs by SRB assay
[15] = Cytotoxicity against human HCC2998 cells after 48 hrs by SRB assay; conditions: HCC 2998, 48 h
K562 = assay: Cytotoxicity against human K562 cells after 48 hrs by SRB assay; conditions: K562, 48 h
786-0 = assay: Cytotoxicity against human 786-0 cells after 48 hrs by SRB assay; conditions: 786-0, 48 h
[16] = Cytotoxicity against human SF268 cells after 48 hrs by SRB assay; conditions: SF-268, 48 h
MCF7 = assay: Cytotoxicity against human MCF7 cells after 48 hrs by SRB assay; conditions: MCF7, 48 h
[17] = Cytotoxicity against human IGROV1 cells after 48 hrs by SRB assay; conditions: IGROV-1, 48 h
NCI-H226 = assay: Cytotoxicity against human NCI-H226 cells after 48 hrs by SRB assay; conditions: NCI-H226, 48 h
NCI-H322M = assay: Cytotoxicity against human NCI-H322M cells after 48 hrs by SRB assay
NCI-H460 = assay: Cytotoxicity against human NCI-H460 cells after 48 hrs by SRB assay; conditions: NCI-H460, 48 h
[18] = Cytotoxicity against human SF295 cells after 48 hrs by SRB assay; conditions: SF-295, 48 h
[19] = Cytotoxicity against human UACC62 cells after 48 hrs by SRB assay; conditions: UACC-62, 48 h
[20] = Cytotoxicity against human SW620 cells after 48 hrs by SRB assay; conditions: SW-620, 48 h
[21] = Cytotoxicity against human OVCAR5 cells after 48 hrs by SRB assay; conditions: OVCAR-5, 48 h
U-251 = assay: Cytotoxicity against human U251 cells after 48 hrs by SRB assay; conditions: U-251, 48 h
SK-MEL-28 = assay: Cytotoxicity against human SK-MEL-28 cells after 48 hrs by SRB assay; conditions: SK-MEL-28, 48 h
[22] = Cytotoxicity against human LOXIMVI cells after 48 hrs by SRB assay; conditions: LOX IMVI
OVCAR-5 = assay: as §1
SK-MEL-2 [23] = assay: Cytotoxicity against human SK-MEL-2 cells assessed as growth level at 10 uM after 48 hrs by SRB assay
SK-MEL-2 [24] = assay: Cytotoxicity against human SK-MEL-2 cells assessed as growth inhibition at 10 uM after 48 hrs by SRB assay; conditions: SK-MEL-2, 48 h, read-out: GI
[25] = read-out: LC50 (the source's name)

For `C=C1CC[C@@H]2[C@](C)(COC(C)=O)[C@H](OC(C)=O)CC[C@@]2(C)[C@@H]1C/C=C1/C(=O)OC[C@H]1OC(C)=O`, the GI50 [1] was 2.83 µM, the TGI [1] was 14.2 µM and the CC50 [1, 25] was 37.6 µM. For the same compound, the GI50 [2] was 3.38 µM, the LC50 [2] was > 100 µM and the TGI [2] was 22 µM. The GI50 [3] was 1.45 µM, the LC50 (concentration killing 50% of cells) [3] was 6.15 µM and the TGI [3] was 2.98 µM. It also gave a GI50 (SN12C) of 3.07 µM, an LC50 (concentration killing 50% of cells) (SN12C) of 72 µM and a TGI (SN12C) of 13.3 µM. For the same compound, the GI50 [4] was 6.07 µM, the LC50 [4] was 48.9 µM and the TGI [4] was 19.9 µM. For the same compound, the inhibition of growth at 10 µM [5] was 46.3%, the GI50 [6] was 3.8 µM and the LC50 [6] was > 100 µM. For the same compound, the TGI [6] was 16.1 µM, the GI50 [7] was 6.2 µM and the LC50 (concentration killing 50% of cells) [7] was 53.2 µM. The TGI [7] was 19.9 µM, the GI50 (SK-MEL-2 [8]) was 10.7 µM and the LC50 (concentration causing 50% net cell kill) (SK-MEL-2 [8]) was 64.3 µM. For the same compound, the TGI (SK-MEL-2 [8]) was 26.3 µM, the GI50 [9] was 13.2 µM and the LC50 [9] was 52.7 µM. The TGI [9] was 26.4 µM, the GI50 [10] was 4.47 µM and the LC50 (concentration killing 50% of cells) [10] was 38.4 µM. The TGI [10] was 14.7 µM, the GI50 [11] was 1.95 µM and the LC50 (concentration causing 50% net cell kill) [11] was 8.75 µM. The TGI [11] was 4.13 µM, the GI50 [12] was 1.91 µM and the LC50 (concentration killing 50% of cells) [12] was 7.92 µM. The TGI [12] was 3.89 µM, the GI50 (A498) was 14.4 µM and the TGI (A498) was 27.5 µM. The CC50 (A498; [25]) was 52.6 µM, the GI50 [13] was 2.61 µM and the TGI [13] was 6.78 µM. The CC50 [13, 25] was 78.5 µM, the GI50 [14] was 4.4 µM and the LC50 [14] was > 100 µM. For the same compound, the TGI [14] was 21.3 µM, the GI50 (EKVX) was 12.9 µM and the LC50 (EKVX) was 50.9 µM. The TGI (EKVX) was 25.6 µM, the GI50 [15] was 12.2 µM and the LC50 [15] was 61.2 µM. For the same compound, the TGI [15] was 27.3 µM, the GI50 (K562) was 2.63 µM and the LC50 (50% lethal concentration) (K562) was > 100 µM. For the same compound, the TGI (K562) was 32.1 µM, the GI50 (786-0) was 2.02 µM and the LC50 (786-0) was 9.29 µM. The TGI (786-0) was 4.34 µM, the GI50 [16] was 8.56 µM and the LC50 [16] was 55.5 µM. For the same compound, the TGI [16] was 22.7 µM, the GI50 (MCF7) was 1.83 µM and the LC50 (50% lethal concentration) (MCF7) was > 100 µM. It also gave a TGI (MCF7) of 6.79 µM, a GI50 [17] of 2.41 µM and a TGI [17] of 6.23 µM. It also gave a CC50 [17, 25] of 32 µM, a GI50 (NCI-H226) of 2.14 µM and an LC50 (NCI-H226) of 19.9 µM. It also gave a TGI (NCI-H226) of 5.42 µM, a GI50 (NCI-H322M) of 16 µM and an LC50 (NCI-H322M) of 55.3 µM. It also gave a TGI (NCI-H322M) of 29.7 µM, a GI50 (NCI-H460) of 18.6 µM and a TGI (NCI-H460) of 37.7 µM. It also gave a CC50 (NCI-H460; [25]) of 76.2 µM, a GI50 [18] of 13.3 µM and an LC50 [18] of 54.2 µM. The TGI [18] was 26.8 µM, the GI50 [19] was 3.37 µM and the LC50 [19] was 40.7 µM. For the same compound, the TGI [19] was 13.5 µM, the GI50 [20] was 2.29 µM and the LC50 [20] was 41.1 µM. For the same compound, the TGI [20] was 5.85 µM, the GI50 [21] was 1.93 µM and the LC50 (concentration causing 50% net cell kill) [21] was 7.97 µM. It also gave a TGI [21] of 3.92 µM, a GI50 (U-251) of 6.09 µM and an LC50 (concentration giving 50% net cell kill) (U-251) of 48.6 µM. It also gave a TGI (U-251) of 19.3 µM, a GI50 (SK-MEL-28) of 1.75 µM and an LC50 (lethal concentration 50%) (SK-MEL-28) of 6.51 µM. For the same compound, the TGI (SK-MEL-28) was 3.38 µM, the GI50 [22] was 1.42 µM and the LC50 [22] was 5.73 µM. For the same compound, the TGI [22] was 2.85 µM.
With `C=C1CC[C@@H]2[C@](C)(COC(C)=O)[C@H](OC(C)=O)CC[C@@]2(C)[C@@H]1CC(NC1CCCC1)C1=CCOC1=O` (stereo partly drawn) the “growth inhibition (GI)” value (OVCAR-5) was “inactive”, the Activity (SK-MEL-2 [23]) was 85.11% and the inhibition of growth at 10 µM (SK-MEL-2 [24]) was 14.9%.
In the case of `C=C1CC[C@@H]2[C@](C)(COC(C)=O)[C@H](OC(C)=O)CC[C@@]2(C)[C@@H]1CC(NCc1cccc(Cl)c1)C1=CCOC1=O` (mixture of isomers), the inhibition of growth at 10 µM [5] was 0.31%, the Activity (SK-MEL-2 [23]) was 68.04% and the inhibition of growth at 10 µM (SK-MEL-2 [24]) was 32%.
Compound `C=C1CC[C@@H]2[C@](C)(COC(C)=O)[C@H](OC(C)=O)CC[C@@]2(C)[C@@H]1CC(NCc1ccc(F)cc1)C1=CCOC1=O` (mixture of isomers) has an inhibition of growth at 10 µM [5] of 1%, an Activity (SK-MEL-2 [23]) of 73.2% and an inhibition of growth at 10 µM (SK-MEL-2 [24]) of 26.8%.
With `C=C1CC[C@@H]2[C@](C)(COC(C)=O)[C@H](OC(C)=O)CC[C@@]2(C)[C@@H]1CC(NCc1ccccc1)C1=CCOC1=O` (mixture of isomers) the “growth inhibition (GI)” value (OVCAR-5) was “inactive”.
In the case of `C=C1CC[C@@H]2[C@](C)(CO)[C@H](O)CC[C@@]2(C)[C@@H]1C/C=C1/C(=O)OC[C@H]1O` [ANDROGRAPHOLIDE], the “growth inhibition (GI)” value (OVCAR-5) was “inactive”.
